Test results as given in patent US10125134B2 (Mirati Therapeutics, Inc., priority 2016, dated 2018).
Like-named read-outs stand apart in the source and are kept apart here.

Experiments:
KRas G12C = KRas G12C (Homo sapiens, UniProt P01116, C118S/C51S/C80L/G12C); experiment: KRas G12C Modification Assay (LCMS detection of covalent adduct); assay type: binding; conditions: normalized percent of control, tested at 5 μM concentration for 3 hours
Method in brief: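 Cys-light KRas G12C mutant protein incubated with compound in K-Ras assay buffer, reactions quenched at set time points with 25 mM acetic acid and analysed by intact-protein LC/MS on a C-3 column. Deconvoluted mass heights expressed as percent of control (POC) relative to compound-free protein.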

[1] = system: NCI-H358 cells (express KRas G12C), Phospho-ERK; experiment: Cellular inhibition of KRas G12C: Phospho-ERK in NCI-H358 cells; assay type: cell-based; conditions: pERK(Thr202/Tyr204) normalized with GAPDH, NCI-H358 cells, 3 hours, read-out: IC50
Method in brief: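 IC50 derived by 4-parameter fit of GAPDH-normalized pERK(Thr202/Tyr204) signal, as percent of DMSO control. Signal came from in-cell immunodetection with infrared secondaries after 3 h compound exposure of KRas G12C NCI-H358 cells at 0.5% DMSO.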

POC (KRas G12C)	POC (KRas G12C; 5 µM)	SMILES	IC50 ([1]; Homo sapiens, NCI-H358, 3 h) [nM]	IC50 ([1]; Homo sapiens) [nM]	IC50 [1] [nM]
C (“C”>50% POC)	–	C=CC(=O)N1CCN(c2nc(OCCN3CCC(F)(F)C3)nc3c2CCN(c2cc(O)cc4ccccc24)C3)CC1 [Example 139, 1-[4-[2-[2-(3,3-difluoropyrrolidin-1-yl)ethoxy]-7-(3-hydroxy-1-naphthyl)-6,8-dihydro-5H-pyrido[3,4-d]pyrimidin-4-yl]piperazin-1-yl]prop-2-en-1-one]	> 1000	–	–
C (“C”>50% POC)	–	C=CC(=O)N1CCN(c2nc(OCCCN3CCOCC3)nc3c2CCN(c2c(C)ccc4[nH]ccc24)C3)CC1 [Example 209, 1-(4-(7-(5-methyl-1H-indol-4-yl)-2-(3-morpholinopropoxy)-5,6,7,8-tetrahydropyrido[3,4-d]pyrimidin-4-yl)piperazin-1-yl)prop-2-en-1-one]	–	> 1000	–
C (“C”>50% POC)	–	CN(C)C/C=C/C(=O)N1CCN(c2nc(OC[C@@H]3CCCN3C)nc3c2CCN(c2cc(O)cc4ccccc24)C3)CC1 [Example 199, (S,E)-4-(dimethylamino)-1-(4-(7-(3-hydroxynaphthalen-1-yl)-2-((1-methylpyrrolidin-2-yl)methoxy)-5,6,7,8-tetrahydropyrido[3,4-d]pyrimidin-4-yl)piperazin-1-yl)but-2-en-1-one]	> 1000	–	–
A (“A”≤25% POC)	–	C=CC(=O)N1CCN(c2nc(OC[C@@H]3C[C@@H](F)CN3C)nc3c2CCN(c2cc(O)cc4ccccc24)C3)CC1 [Example 357, 1-[4-[2-[[(2S,4R)-4-fluoro-1-methyl-pyrrolidin-2-yl]methoxy]-7-(3-hydroxy-1-naphthyl)-6,8-dihydro-5H-pyrido[3,4-d]pyrimidin-4-yl]piperazin-1-yl]prop-2-en-1-one]	0.1 to 1000	–	–
C (“C”>50% POC)	–	C=CC(=O)N1CCN(c2nc(OC[C@@H]3CCCN3C)nc3c2CCN(c2cccc4ccncc24)C3)C[C@@H]1CC#N [Example 429, 2-((S)-1-acryloyl-4-(7-(isoquinolin-8-yl)-2-(((S)-1-methylpyrrolidin-2-yl)methoxy)-5,6,7,8-tetrahydropyrido[3,4-d]pyrimidin-4-yl)piperazin-2-yl)acetonitrile]	0.1 to 1000	–	–
C (“C”>50% POC)	–	C=CC(=O)N1CCN(c2nc(OC[C@@H]3CCN(C)C3)nc3c2CCN(c2cccc4ccccc24)C3)C[C@@H]1CC#N [Example 409, 2-((S)-1-acryloyl-4-(2-(((R)-1-methylpyrrolidin-3-yl)methoxy)-7-(naphthalen-1-yl)-5,6,7,8-tetrahydropyrido[3,4-d]pyrimidin-4-yl)piperazin-2-yl)acetonitrile]	0.1 to 1000	–	–
A (“A”≤25% POC)	–	C=CC(=O)N1CCN(c2nc(O[C@H](C)CN(C)C)nc3c2CCN(c2cccc4ccccc24)C3)CC1 [Example 68, (R)-1-(4-(2-((1-(dimethylamino)propan-2-yl)oxy)-7-(naphthalen-1-yl)-5,6,7,8-tetrahydropyrido[3,4-d]pyrimidin-4-yl)piperazin-1-yl)prop-2-en-1-one]	> 1000	–	–
C (“C”>50% POC)	–	C=CC(=O)N1CCN(c2nc(OC[C@@H]3CCCN3CCOC)nc3c2CCN(c2cccc4ccccc24)C3)CC1CC#N (stereo partly drawn) [Example 380, 2-(1-acryloyl-4-(2-(((S)-1-(2-methoxyethyl)pyrrolidin-2-yl)methoxy)-7-(naphthalen-1-yl)-5,6,7,8-tetrahydropyrido[3,4-d]pyrimidin-4-yl)piperazin-2-yl)acetonitrile]	–	–	0.1 to 1000
C (“C”>50% POC)	–	C=CC(=O)N1CCN(c2nc(OCCN(CC)CC)nc3c2CCN(c2ccccc2C(F)(F)F)C3)CC1CC#N (stereo not shown) [Example 300, 2-[4-[2-[2-(diethylamino)ethoxy]-7-[2-(trifluoromethyl)phenyl]-6,8-dihydro-5H-pyrido[3,4-d]pyrimidin-4-yl]-1-prop-2-enoyl-piperazin-2-yl]acetonitrile]	–	–	0.1 to 1000
C (“C”>50% POC)	–	C=CC(=O)N1CCN(c2nc(OC[C@@H]3CCCN3C)nc3c2CCN(c2ccccc2C(F)(F)F)C3)C[C@@H]1CC#N [Example 237, 2-((S)-1-acryloyl-4-(2-(((S)-1-methylpyrrolidin-2-yl)methoxy)-7-(2-(trifluoromethyl)phenyl)-5,6,7,8-tetrahydropyrido[3,4-d]pyrimidin-4-yl)piperazin-2-yl)acetonitrile 2,2,2-trifluoroacetate]	0.1 to 1000	–	–
B (“B”>25% POC−≤50% POC)	–	C=CC(=O)N1CCN(c2nc(OC[C@@H]3CCNC3)nc3c2CCN(c2cc(O)cc4ccccc24)C3)CC1 [Example 146, 1-[4-[7-(3-hydroxy-1-naphthyl)-2-[[(3R)-pyrrolidin-3-yl]methoxy]-6,8-dihydro-5H-pyrido[3,4-d]pyrimidin-4-yl]piperazin-1-yl]prop-2-en-1-one]	> 1000	–	–
–	A (“A”≤25% POC)	C=CC(=O)N1CCN(c2nc(OC[C@@H]3CCCN3C)nc3c2CCN(c2ccnc4ccccc24)C3)CC1CC#N (stereo partly drawn) [Example 295, 2-[4-[2-[[(2S)-1-methylpyrrolidin-2-yl]methoxy]-7-(4-quinolyl)-6,8-dihydro-5H-pyrido[3,4-d]pyrimidin-4-yl]-1-prop-2-enoyl-piperazin-2-yl]acetonitrile]	–	–	> 1000
C (“C”>50% POC)	–	C=CC(=O)N1CCN(c2nc(OC[C@@H]3CCCN3C)nc3c2CCN(c2cccc4ccccc24)C3)CC1COC (stereo partly drawn) [Example 256, 1-(2-(methoxymethyl)-4-(2-(((S)-1-methylpyrrolidin-2-yl)methoxy)-7-(naphthalen-1-yl)-5,6,7,8-tetrahydropyrido[3,4-d]pyrimidin-4-yl)piperazin-1-yl)prop-2-en-1-one]	> 1000	–	–
C (“C”>50% POC)	–	C=CC(=O)N1CCN(c2nc(OC[C@@H]3CCCN3C)nc3c2CCN(c2ccncc2C)C3)C[C@@H]1CC#N [Example 345, 2-[(2S)-4-[7-(3-methyl-4-pyridyl)-2-[[(2S)-1-methylpyrrolidin-2-yl]methoxy]-6,8-dihydro-5H-pyrido[3,4-d]pyrimidin-4-yl]-1-prop-2-enoyl-piperazin-2-yl]acetonitrile]	> 1000	–	–
A (“A”≤25% POC)	–	C=CC(=O)N1CCN(c2nc(OCCCN3CCOCC3)nc3c2CCN(c2cc(C(F)F)cc4ccccc24)C3)CC1 [Example 112, 1-(4-(7-(3-(difluoromethyl)naphthalen-1-yl)-2-(3-morpholinopropoxy)-5,6,7,8-tetrahydropyrido[3,4-d]pyrimidin-4-yl)piperazin-1-yl)prop-2-en-1-one]	–	> 1000	–
C (“C”>50% POC)	–	C/C=C/C(=O)N1CCN(c2nc(OC[C@@H]3CCCN3C)nc3c2CCN(c2cc(O)cc4ccccc24)C3)CC1 [Example 198, (S,E)-1-(4-(7-(3-hydroxynaphthalen-1-yl)-2-((1-methylpyrrolidin-2-yl)methoxy)-5,6,7,8-tetrahydropyrido[3,4-d]pyrimidin-4-yl)piperazin-1-yl)but-2-en-1-one]	> 1000	–	–

SMILES	POC (KRas G12C)	POC (KRas G12C; 5 µM)	IC50 ([1]; Homo sapiens, NCI-H358, 3 h) [nM]	IC50 ([1]; Homo sapiens) [nM]	IC50 [1] [nM]
C=CC(=O)N1CCN(c2nc(OC[C@@H]3CCCN3C)nc3c2CCN(c2cccc4ccccc24)C3)CC1CC#N (stereo partly drawn) [Example 147, 2-[4-[2-[[(2S)-1-methylpyrrolidin-2-yl]methoxy]-7-(1-naphthyl)-6,8-dihydro-5H-pyrido[3,4-d]pyrimidin-4-yl]-1-prop-2-enoyl-piperazin-2-yl]acetonitrile]	C (“C”>50% POC)	–	–	0.1 to 1000	–
